Test results as given in the supplement of paper PMC10307832.

What was measured:
Experiment in all cases: relative viability (nuclei count vs DMSO), 5 days (fraction); higher = more cells survive
[1] = compound: C1=CC2=C(C=C(C(=C2N=C1)O)N=NC3=CC4=C(C=C3)C=C(C=C4)S(=O)(=O)O)S(=O)(=O)O + COc1cccc2cc(-c3nc([C@H]4CC[C@H](C(=O)O)CC4)n4ncnc(N)c34)[nH]c12 [OSI-027] (partner 0.5 µM)
Method in brief: (§1)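 Nuclei were stained with Hoechst during a one-step fixation (final 0.05% Triton X-100, 1% formaldehyde, 1 ug/ml Hoechst) carried out 5 days after dosing, then counted on 4× images. The cells, lung cancer lines in 1536-well plates, had been dosed by pin tool the day after seeding with one drug alone or a fixed anchor-drug dose plus five library-drug doses (not always all listed) in √10 steps. Relative viability is the nuclei count in treated wells divided by that in vehicle wells, and each value is the median of duplicate plates.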

AT-7519 + Lapatinib = compound: O=C(NC1CCNCC1)c1n[nH]cc1NC(=O)c1c(Cl)cccc1Cl [AT-7519] + CS(=O)(=O)CCNCc1ccc(-c2ccc3ncnc(Nc4ccc(OCc5cccc(F)c5)c(Cl)c4)c3c2)o1 [Lapatinib] (partner 2 µM)
Method in brief: as §1

AT-7519 + Dasatinib = compound: O=C(NC1CCNCC1)c1n[nH]cc1NC(=O)c1c(Cl)cccc1Cl [AT-7519] + Cc1nc(Nc2ncc(C(=O)Nc3c(C)cccc3Cl)s2)cc(N2CCN(CCO)CC2)n1 [Dasatinib] (partner 0.075 µM)
Method in brief: as §1

[2] = compound: C1=CC2=C(C=C(C(=C2N=C1)O)N=NC3=CC4=C(C=C3)C=C(C=C4)S(=O)(=O)O)S(=O)(=O)O + CS(=O)(=O)N1CCN(Cc2cc3nc(-c4cccc5[nH]ncc45)nc(N4CCOCC4)c3s2)CC1 [Pictilisib] (partner 1 µM)
Method in brief: as §1

Cell Line	relative viability ([1]; first compound 0.08 µM)	relative viability ([1]; first compound 0.253 µM)	relative viability ([1]; first compound 0.8 µM)	relative viability ([1]; first compound 2.53 µM)	relative viability ([1]; first compound 8 µM)	relative viability (AT-7519 + Lapatinib; first compound 0.01 µM)	relative viability (AT-7519 + Lapatinib; first compound 0.03162 µM)	relative viability (AT-7519 + Lapatinib; first compound 0.3162 µM)	relative viability (AT-7519 + Lapatinib; first compound 1 µM)	relative viability (AT-7519 + Dasatinib; first compound 0.01 µM)	relative viability (AT-7519 + Dasatinib; first compound 0.03162 µM)	relative viability (AT-7519 + Dasatinib; first compound 0.3162 µM)	relative viability (AT-7519 + Dasatinib; first compound 1 µM)	relative viability ([2]; first compound 0.08 µM)	relative viability ([2]; first compound 0.253 µM)	relative viability ([2]; first compound 0.8 µM)	relative viability ([2]; first compound 2.53 µM)	relative viability ([2]; first compound 8 µM)
NCI-H2347	0.505	0.532	0.5	0.341	0.392	1.04	1.06	0.989	0.935	0.375	0.32	0.356	0.0926	0.651	0.585	0.541	0.657	0.683
NCI-H1993	0.553	0.547	0.556	0.601	0.584	0.808	0.787	0.632	0.699	0.626	0.516	0.441	0.312	0.887	0.802	0.938	0.921	0.782
NCI-H322M	0.651	0.501	0.513	0.586	0.509	0.648	0.606	0.525	0.67	0.257	0.257	0.226	0.275	0.505	0.473	0.444	0.442	0.524
NCI-H838	0.373	0.464	0.354	0.409	0.392	1.05	0.815	0.124	0.0875	0.298	0.285	0.259	0.249	0.42	0.42	0.437	0.417	0.518
HARA	0.633	0.524	0.513	0.522	0.48	0.804	0.622	0.604	0.681	0.265	0.28	0.314	0.211	0.356	0.471	0.384	0.38	0.707
NCI-H2087	0.563	0.536	0.477	0.61	0.682	1.2	1.11	0.998	0.185	1.14	0.938	0.732	0.108	1.07	0.863	0.77	0.945	0.909
NCI-H1437	0.93	0.899	0.889	0.961	0.813	0.77	0.71	0.514	0.22	0.444	0.424	0.377	0.486	0.489	0.419	0.47	0.507	0.56
NCI-H1792	0.866	0.669	0.726	0.689	0.629	0.673	0.845	0.98	0.94	–	–	0.845	0.654	0.304	0.26	0.295	0.286	0.302
NCI-H650	0.546	0.511	0.499	0.494	0.293	0.923	0.841	0.781	0.75	0.437	0.423	0.465	0.488	0.907	0.859	0.909	0.92	0.833
COR-L23	0.884	0.781	0.725	0.612	0.802	1.14	0.786	0.325	0.121	0.434	0.513	0.369	0.137	0.982	0.81	0.692	0.753	0.857
COR-L 105	0.657	0.576	0.788	0.635	0.722	0.397	0.397	0.319	0.293	0.366	0.334	0.259	0.23	0.397	0.362	0.379	0.401	0.4
LK-2	0.21	0.202	0.189	0.211	0.202	0.816	0.951	0.706	0.706	0.288	0.248	–	0.221	0.677	0.522	0.613	0.541	0.552
201T	0.804	0.687	0.684	0.761	0.735	1.06	1.03	1.07	1.06	0.586	0.528	0.609	0.662	0.625	0.696	0.649	0.695	0.72
NCI-H596	0.812	0.653	0.613	0.695	0.663	1.05	1.11	1.02	0.767	0.586	0.501	0.629	0.612	0.408	0.385	0.377	0.428	0.417
H3255	0.544	0.633	0.595	0.567	0.655	0.282	0.232	0.294	0.212	0.441	0.417	0.409	0.313	0.482	0.462	0.4	0.49	0.439
NCI-H647	0.68	0.636	0.603	0.75	0.73	1.02	1	0.937	0.291	0.184	0.23	0.195	0.131	0.357	–	0.436	0.505	0.394
NCI-H2023	0.434	0.431	0.454	0.367	0.552	0.911	0.755	0.504	0.177	0.636	0.548	0.485	0.231	0.218	0.261	0.257	0.251	0.298
NCI-H23	0.619	0.585	0.637	0.654	0.603	0.955	0.975	0.919	0.218	0.681	0.715	0.811	0.438	0.516	0.514	0.365	0.45	0.585
